Starred links: 1 amine or outer side, 2 acyl side, 3 side chain; linkers in the order of their positions; H or OH if unused. Non-standard residues stand in square brackets, D forms with d. Residues, ends and D or L forms follow the SMILES beside them. X3 = CC(=O)O[C@@H](c1ccccc1)[C@@H](N[*:1])C(=O)[*:2]; X1 = CC(=O)O[C@H](c1ccccc1)[C@H](N[*:1])C(=O)[*:2]; X2 = O=C(/C(=C/c1ccccc1)N[*:1])[*:2]; Phe(ol) = N[C@H](CO)Cc1ccccc1
Columns and labels:
[1] = biological target: Cyclin-dependent kinase 2/cyclin A (Homo sapiens, UniProt P24941); test: In vitro inhibition of CDK2-cyclin A kinase activity on retinoblastoma protein; assay type: protein-complex assay
[2] = Inhibition of competitive binding to cyclin-A kinase complex
[3] = Inhibition of p21WAF1 peptide recruitment to CDK 2/cyclin-A complex

Row | Structure (SMILES) | IC50 [1] | IC50 [2] | IC50 [3]
1 | CC[C@H](C)[C@H](NC(=O)[C@H](CC(C)C)NC(=O)[C@H](CCCNC(=N)N)NC(=O)[C@H](CCCNC(=N)N)NC(=O)[C@H](CCCCN)NC(=O)[C@H](C)NC(=O)[C@@H](N)Cc1cnc[nH]1)C(=O)N[C@@H](C(=O)O)[C@@H](OC(C)=O)c1ccccc1 | 200 nM |  | 
2 | CC[C@H](C)[C@H](NC(=O)[C@H](CC(C)C)NC(=O)[C@H](CCCN=C(N)N)NC(=O)[C@H](CCCN=C(N)N)NC(=O)[C@H](CCCCN)NC(=O)[C@H](CO)NC(=O)[C@@H](N)Cc1c[nH]cn1)C(=O)N[C@@H](Cc1ccccc1)C(N)=O | 3400 nM | 4300 nM | 
3 | CC[C@H](C)[C@H](NC(=O)[C@H](CC(C)C)NC(=O)[C@H](CCCN=C(N)N)NC(=O)[C@H](CCCN=C(N)N)NC(=O)[C@H](CCCCN)NC(=O)[C@H](CO)NC(=O)[C@@H](N)Cc1c[nH]cn1)C(=O)N[C@H](C(=O)O)[C@H](O)c1ccccc1 | 560 nM | 250 nM | 190 nM
4 | CC[C@H](C)[C@H](NC(=O)[C@H](CC(C)C)NC(=O)[C@H](CCCN=C(N)N)NC(=O)[C@H](CCCN=C(N)N)NC(=O)[C@H](CCCCN)NC(=O)[C@H](CO)NC(=O)[C@@H](N)Cc1c[nH]cn1)C(=O)N[C@H](CO)Cc1ccccc1 | 430 nM |  | 310 nM
5 | CC[C@H](C)[C@H](NC(=O)[C@H](CC(C)C)NC(=O)[C@H](CCCN=C(N)N)NC(=O)[C@H](CCCN=C(N)N)NC(=O)[C@H](CCCCN)NC(=O)[C@H](C)NC(=O)[C@@H](N)Cc1c[nH]cn1)C(=O)N[C@@H](C(=O)O)[C@@H](O)c1ccccc1 |  | 120 nM | 110 nM
6 | CC[C@H](C)[C@H](NC(=O)[C@H](CC(C)C)NC(=O)[C@H](CCCN=C(N)N)NC(=O)[C@H](CCCN=C(N)N)NC(=O)[C@H](CCCCN)NC(=O)[C@H](CO)NC(=O)[C@@H](N)Cc1c[nH]cn1)C(=O)N[C@@H](C(=O)O)[C@@H](O)c1ccccc1 | 1200 nM | 760 nM | 710 nM
7 | CC[C@H](C)[C@H](NC(=O)[C@H](CC(C)C)NC(=O)[C@H](CCCN=C(N)N)NC(=O)[C@H](CCCN=C(N)N)NC(=O)[C@H](CCCCN)NC(=O)[C@H](C)NC(=O)[C@@H](N)Cc1c[nH]cn1)C(=O)N[C@H](C(=O)O)[C@H](O)c1ccccc1 |  | 74 nM | 28 nM
8 | CC[C@H](C)[C@H](NC(=O)[C@H](CC(C)C)NC(=O)[C@H](CCCN=C(N)N)NC(=O)[C@H](CCCN=C(N)N)NC(=O)[C@H](CCCCN)NC(=O)[C@H](C)NC(=O)[C@@H](N)Cc1c[nH]cn1)C(=O)N[C@H](CO)Cc1ccccc1 (H-HAKRRLI[Phe(ol)]) |  | 22 nM | 18 nM
9 | CC[C@H](C)[C@H](NC(=O)[C@H](CC(C)C)NC(=O)[C@H](CCCN=C(N)N)NC(=O)[C@H](CCCN=C(N)N)NC(=O)[C@H](CCCCN)NC(=O)[C@H](C)NC(=O)[C@@H](N)Cc1c[nH]cn1)C(=O)N[C@H](C(=O)O)[C@H](OC(C)=O)c1ccccc1 (H-HAKRRLI[X1]-OH) | 320 nM | 230 nM | 240 nM
10 | CC[C@H](C)[C@H](NC(=O)[C@H](CC(C)C)NC(=O)[C@H](CCCN=C(N)N)NC(=O)[C@H](CCCN=C(N)N)NC(=O)[C@H](CCCCN)NC(=O)[C@H](C)NC(=O)[C@@H](N)Cc1c[nH]cn1)C(=O)N/C(=C\c1ccccc1)C(=O)O (H-HAKRRLI[X2]-OH) | 70 nM | 60 nM | 54 nM
11 | CC[C@H](C)[C@H](NC(=O)[C@H](CC(C)C)NC(=O)[C@H](CCCN=C(N)N)NC(=O)[C@H](CCCN=C(N)N)NC(=O)[C@H](CCCCN)NC(=O)[C@H](C)NC(=O)[C@@H](N)Cc1c[nH]cn1)C(=O)N[C@@H](C(=O)O)[C@@H](OC(C)=O)c1ccccc1 (H-HAKRRLI[X3]-OH) |  | 190 nM | 160 nM
12 | CC[C@H](C)[C@H](NC(=O)[C@H](CC(C)C)NC(=O)[C@H](CCCN=C(N)N)NC(=O)[C@H](CCCN=C(N)N)NC(=O)[C@H](CCCCN)NC(=O)[C@H](CO)NC(=O)[C@@H](N)Cc1c[nH]cn1)C(=O)N[C@H](C(=O)O)[C@H](OC(C)=O)c1ccccc1 (H-HSKRRLI[X1]-OH) |  | 1320 nM | 800 nM
13 | CC[C@H](C)[C@H](NC(=O)[C@H](CC(C)C)NC(=O)[C@H](CCCN=C(N)N)NC(=O)[C@H](CCCN=C(N)N)NC(=O)[C@H](CCCCN)NC(=O)[C@H](CO)NC(=O)[C@@H](N)Cc1c[nH]cn1)C(=O)N/C(=C\c1ccccc1)C(=O)O (H-HSKRRLI[X2]-OH) | 1300 nM | 200 nM | 220 nM
14 | CC[C@H](C)[C@H](NC(=O)[C@H](CC(C)C)NC(=O)[C@H](CCCN=C(N)N)NC(=O)[C@H](CCCN=C(N)N)NC(=O)[C@H](CCCCN)NC(=O)[C@H](CO)NC(=O)[C@@H](N)Cc1c[nH]cn1)C(=O)N[C@@H](C(=O)O)[C@@H](OC(C)=O)c1ccccc1 (H-HSKRRLI[X3]-OH) |  | 1820 nM | 600 nM

— ChEMBL document CHEMBL1135869, “Peptide inhibitors of CDK2-cyclin A that target the cyclin recruitment-site: structural variants of the C-terminal Phe” (Bioorg Med Chem Lett, 2002)
